# Laboratory results: ChEMBL document CHEMBL2417541, “Aromatic glucosides from the seeds of Prunus davidiana” (J Nat Prod, 2013)
# Legend:
# A2780 = test: Cytotoxicity against human A2780 cells; format: cell-based
# HCT-8 = test: Cytotoxicity against human HCT8 cells; format: cell-based
# Liver microsomes [1] = test: Antioxidant activity in rat liver microsomes assessed as inhibition of Fe2+-cysteine-induced lipid peroxidation measured malondialdehyde level at 10^-6 M/L incubated for 15 mins prior to FeSO4 addition measured after 15 mins by TBA method relative to control; format: functional; conditions: Microsome
# Liver microsomes [2] = test: Antioxidant activity in rat liver microsomes assessed as inhibition of Fe2+-cysteine-induced lipid peroxidation measured malondialdehyde level at 10^-5 M/L incubated for 15 mins prior to FeSO4 addition measured after 15 mins by TBA method relative to control; format: functional; conditions: Microsome
# Liver microsomes [3] = test: Antioxidant activity in rat liver microsomes assessed as inhibition of Fe2+-cysteine-induced lipid peroxidation measured malondialdehyde level at 10^-4 M/L incubated for 15 mins prior to FeSO4 addition measured after 15 mins by TBA method relative to control; format: functional; conditions: Microsome
# BGC-823 = test: Cytotoxicity against human BGC823 cells; format: cell-based
# A549 = test: Cytotoxicity against human A549 cells; format: cell-based
# Bel-7402 = test: Cytotoxicity against human Bel7402 cells; format: cell-based
Compound,IC50 (A2780),IC50 (HCT-8),inhibition (Liver microsomes [1]),inhibition (Liver microsomes [2]),inhibition (Liver microsomes [3]),IC50 (BGC-823),IC50 (A549),IC50 (Bel-7402)
CCOC(=O)[C@H](O[C@@H]1O[C@H](CO[C@@H]2O[C@H](CO)[C@@H](O)[C@H](O)[C@H]2O)[C@@H](O)[C@H](O)[C@H]1O)c1ccccc1,> 10 µM,> 10 µM,56%,51%,51%,> 10 µM,> 10 µM,> 10 µM
COc1cc(CO)ccc1O[C@@H]1O[C@H](COC(=O)c2ccccc2)[C@@H](O)[C@H](O)[C@H]1O,> 10 µM,> 10 µM,41%,42%,51%,> 10 µM,> 10 µM,> 10 µM
O=C(OC[C@H]1O[C@@H](OC[C@H](O)[C@@H](O)c2ccc(O)cc2)[C@H](O)[C@@H](O)[C@@H]1O)c1ccccc1,> 10 µM,> 10 µM,57%,64%,88%,> 10 µM,> 10 µM,> 10 µM
O=C(OC[C@H]1O[C@@H](OC[C@H]2O[C@@H](OCc3ccccc3)[C@H](O)[C@@H](O)[C@@H]2O)[C@H](O)[C@@H](O)[C@@H]1O)c1ccccc1,> 10 µM,> 10 µM,59%,50%,55%,> 10 µM,> 10 µM,> 10 µM
O=C(OC[C@H]1O[C@@H](O[C@@H](C(=O)O)c2ccccc2)[C@H](O)[C@@H](O)[C@@H]1O)c1ccccc1,> 10 µM,> 10 µM,53%,60%,67%,> 10 µM,> 10 µM,> 10 µM
O=C(OC[C@H]1O[C@@H](OC[C@H]2O[C@@H](OC(=O)c3ccccc3)[C@H](O)[C@@H](O)[C@@H]2O)[C@H](O)[C@@H](O)[C@@H]1O)c1ccccc1,> 10 µM,> 10 µM,56%,66%,56%,> 10 µM,> 10 µM,> 10 µM
N#C[C@H](O[C@@H]1O[C@H](CO[C@@H]2O[C@H](COC(=O)c3cccnc3)[C@@H](O)[C@H](O)[C@H]2O)[C@@H](O)[C@H](O)[C@H]1O)c1ccccc1,> 10 µM,> 10 µM,56%,67%,88%,> 10 µM,> 10 µM,> 10 µM
